From PubChem BioAssay AID652275 (Broad Institute, 2013) come the findings set out here.

The test system of test [1] is T. cruzi proliferation in host cells, plate reader. The test is described as follows: T. cruzi growth inhibition in host cells, dose response, cell-based, plate reader, dry powder, set 2 (AID 652275).
Assay in test [2]: as above
As to conditions: T. cruzi proliferation in host cells, plate reader; at 16 µM (top of the series).

Records with an inconclusive call do not appear. Calls of active or inactive are those of the source. No rule for the calls is given here.

The term AC50 denotes the concentration giving half of the maximal activity seen. Turning to `C[C@@H]1CN([C@@H](C)CO)C(=O)c2cccc(NC(=O)c3ccncc3)c2O[C@H]1CN(C)Cc1ccc(Oc2ccccc2)cc1`, the AC50 in test [1] was 1.11 nM.

Regarding `CC(C)N1C[C@@H](CN)Oc2c(NC(=O)c3ccncc3)cccc2C1=O`, the activity change, negative = inhibition in test [2] was -29% (inactive).

For `C[C@@H]1CN([C@@H](C)CO)C(=O)c2cccc(NC(=O)c3ccncc3)c2O[C@H]1CN(C)C`, in test [2], the activity change, negative = inhibition was 18.7% (inactive).

Take `CN(C)CC#Cc1cccc(-c2nc(C(=O)N3CCN(C)CC3)cc3c2[C@@H](CCO)N(S(=O)C(C)(C)C)C3)c1` (stereo partly specified): in test [2], the activity change, negative = inhibition was -4.18% (inactive).

Take `CC(C)N1C[C@@H](C)[C@H](CN(C)Cc2ccc(Oc3ccccc3)cc2)Oc2c(C(=O)O)cccc2C1=O`: the activity change, negative = inhibition in test [2] is -33.8% (inactive).

Consider `CN(C)CC#Cc1cccc(-c2nc(C(=O)O)cc3c2[C@H](CCO)N(S(=O)C(C)(C)C)C3)c1` (stereo partly specified), for which the activity change, negative = inhibition in test [2] is -23.9% (inactive).

On to `COCCNC(=O)c1cc2c(c(-c3cccc(C#CCN(C)C)c3)n1)[C@H](CCO)N(S(=O)C(C)(C)C)C2` (stereo partly specified), for which the activity change, negative = inhibition in test [2] was -35.9% (inactive).

As to `C[C@@H](CO)N1CC[C@H](CNC(=O)OC(C)(C)C)Oc2c(cccc2[N+](=O)[O-])C1=O`, the activity change, negative = inhibition in test [2] was -13.9% (inactive).

`CC(C)N1C[C@@H](C)[C@H](CN(C)Cc2ccc(OCCCC(F)(F)C(F)(F)C(F)(F)C(F)(F)C(F)(F)C(F)(F)C(F)(F)C(F)(F)F)cc2)Oc2c(NC(=O)c3ccncc3)cccc2C1=O`: the activity change, negative = inhibition in test [2] is 33.7% (inactive).

On to `CC(C)N1C[C@@H](C)[C@H](CN(C)C(=O)OC(C)(C)C)Oc2c(C#N)cccc2C1=O`, for which the activity change, negative = inhibition in test [2] was -37% (inactive).

For the compound `CN(C)CC#Cc1cccc(-c2nc(C(=O)N3CCN(C)CC3)cc3c2[C@H](CCO)N(S(=O)C(C)(C)C)C3)c1` (stereo partly specified), the activity change, negative = inhibition in test [2] was 1.54% (inactive).
